Laboratory results reported in patent US20250215101A1, “DR5 Agonist and PLK1 Inhibitor or CDK Inhibitor Combination Therapy” (Inhibrx Biosciences, Inc., priority 2022, published 2025).

Experiments:
Assay in all cases: Cytotoxicity assay, colorectal cancer cell line panel, onvansertib +/- 1 nM INBRX-109
Type in all cases: cell-based
[1] = system: NCI-H747; conditions: for EC50: Homo sapiens, NCI-H747, NCI-H747; for Max Cytotox at 600 nM: NCI-H747
Procedure: (§1) Monolayer cultures of each cell line were harvested for compound screening as detailed below.
(§2) Also on day 2, test and control articles were added.
(§3) On day 4, viability measurements were taken. […] Data was graphed in GraphPad Prism 9.
(§4) The results for a panel of colorectal cancer cell lines are shown in Table 3 and FIGS. 4-6, and the results for a panel of pancreatic cell lines are shown in Table 4 and FIGS. 7 and 8.

[2] = system: RKO; conditions: for EC50: Homo sapiens
Procedure: as §1, §2, §3, §4

[3] = system: SK-CO-1; conditions: for EC50: Homo sapiens, SK-CO-1, SK-CO-1; for Max Cytotox at 600 nM: SK-CO-1
Procedure: as §1, §2, §3, §4

[4] = system: SNU-81
Procedure: as §1, §2, §3, §4

[5] = system: SNU-C2A
Procedure: as §1, §2, §3, §4

[6] = system: SNU-C5
Procedure: as §1, §2, §3, §4

[7] = system: SW-1116; conditions: for EC50: Homo sapiens, SW 1116, SW-1116; for Max Cytotox at 600 nM: SW-1116
Procedure: as §1, §2, §3, §4

[8] = system: SW-1463; conditions: for EC50: Homo sapiens, SW1463, SW-1463; for Max Cytotox at 600 nM: SW-1463
Procedure: as §1, §2, §3, §4

[9] = system: SW-403; conditions: for EC50: Homo sapiens, SW-403, SW-403; for Max Cytotox at 600 nM: SW-403
Procedure: as §1, §2, §3, §4

[10] = system: SW-480; conditions: for EC50: Homo sapiens, SW480, SW-480; for Max Cytotox at 600 nM: SW-480
Procedure: as §1, §2, §3, §4

[11] = system: SW-48; conditions: for EC50: Homo sapiens, SW48, SW-48; for Max Cytotox at 600 nM: SW-48
Procedure: as §1, §2, §3, §4

[12] = system: SW-837; conditions: for EC50: Homo sapiens, SW837, SW-837; for Max Cytotox at 600 nM: SW-837
Procedure: as §1, §2, §3, §4

[13] = system: SW-948; conditions: for EC50: Homo sapiens, SW948, SW-948; for Max Cytotox at 600 nM: SW-948
Procedure: as §1, §2, §3, §4

[14] = system: SW620; conditions: for EC50: Homo sapiens, SW-620, SW620; for Max Cytotox at 600 nM: SW620
Procedure: as §1, §2, §3, §4

[15] = system: T84; conditions: for EC50: Homo sapiens, T84, T84; for Max Cytotox at 600 nM: T84
Procedure: as §1, §2, §3, §4

With CN1CCN(c2ccc(OC(F)(F)F)c(Nc3ncc4c(n3)-c3c(c(C(N)=O)nn3CCO)CC4)c2)CC1 [Onvansertib] the EC50 ([1]; onvansertib + 1 nM INBRX-109) was 0.0787 µM, the EC50 ([1]; onvansertib only) was 0.0716 µM and the “Max Cytotox at 600 nM” value ([1]; onvansertib + 1 nM INBRX-109) was 44.5%. For the same compound, the “Max Cytotox at 600 nM” value ([1]; onvansertib only) was 17.4%, the EC50 ([2]; onvansertib + 1 nM INBRX-109) was 0.0547 µM and the EC50 ([2]; onvansertib only) was 0.0859 µM. For the same compound, the “Max Cytotox at 600 nM” value ([2]; onvansertib + 1 nM INBRX-109) was 93.8%, the “Max Cytotox at 600 nM” value ([2]; onvansertib only) was 65.7% and the EC50 ([3]; onvansertib + 1 nM INBRX-109) was 0.111 µM. The EC50 ([3]; onvansertib only) was 0.113 µM, the “Max Cytotox at 600 nM” value ([3]; onvansertib + 1 nM INBRX-109) was 94.2% and the “Max Cytotox at 600 nM” value ([3]; onvansertib only) was 52.8%. The EC50 ([4]; onvansertib + 1 nM INBRX-109) was 0.0719 µM, the “Max Cytotox at 600 nM” value ([4]; onvansertib + 1 nM INBRX-109) was 92.3% and the EC50 ([4]; onvansertib only) was 0.187 µM. For the same compound, the “Max Cytotox at 600 nM” value ([4]; onvansertib only) was 24.3%, the EC50 ([5]; onvansertib + 1 nM INBRX-109) was 0.0429 µM and the “Max Cytotox at 600 nM” value ([5]; onvansertib + 1 nM INBRX-109) was 78.0%. For the same compound, the EC50 ([5]; onvansertib only) was 0.0727 µM, the “Max Cytotox at 600 nM” value ([5]; onvansertib only) was 42.9% and the EC50 ([6]; onvansertib + 1 nM INBRX-109) was 0.0577 µM. For the same compound, the “Max Cytotox at 600 nM” value ([6]; onvansertib + 1 nM INBRX-109) was 87.7%, the EC50 ([6]; onvansertib only) was 0.0956 µM and the “Max Cytotox at 600 nM” value ([6]; onvansertib only) was 42.9%. The EC50 ([7]; onvansertib + 1 nM INBRX-109) was 0.411 µM, the EC50 ([7]; onvansertib only) was 0.441 µM and the “Max Cytotox at 600 nM” value ([7]; onvansertib + 1 nM INBRX-109) was 39.4%. The “Max Cytotox at 600 nM” value ([7]; onvansertib only) was 10.4%, the EC50 ([8]; onvansertib + 1 nM INBRX-109) was 0.098 µM and the EC50 ([8]; onvansertib only) was 0.201 µM. For the same compound, the “Max Cytotox at 600 nM” value ([8]; onvansertib + 1 nM INBRX-109) was 64.2%, the “Max Cytotox at 600 nM” value ([8]; onvansertib only) was 21.0% and the EC50 ([9]; onvansertib + 1 nM INBRX-109) was 0.0649 µM. For the same compound, the EC50 ([9]; onvansertib only) was 0.0625 µM, the “Max Cytotox at 600 nM” value ([9]; onvansertib + 1 nM INBRX-109) was 89.0% and the “Max Cytotox at 600 nM” value ([9]; onvansertib only) was 46.4%. The EC50 ([10]; onvansertib + 1 nM INBRX-109) was 0.0933 µM, the EC50 ([10]; onvansertib only) was 0.126 µM and the “Max Cytotox at 600 nM” value ([10]; onvansertib + 1 nM INBRX-109) was 86.3%. The “Max Cytotox at 600 nM” value ([10]; onvansertib only) was 40.7%, the EC50 ([11]; onvansertib + 1 nM INBRX-109) was 0.0283 µM and the EC50 ([11]; onvansertib only) was 0.0373 µM. The “Max Cytotox at 600 nM” value ([11]; onvansertib + 1 nM INBRX-109) was 99.4%, the “Max Cytotox at 600 nM” value ([11]; onvansertib only) was 76.6% and the EC50 ([12]; onvansertib + 1 nM INBRX-109) was 0.183 µM. For the same compound, the EC50 ([12]; onvansertib only) was 0.227 µM, the “Max Cytotox at 600 nM” value ([12]; onvansertib + 1 nM INBRX-109) was 73.5% and the “Max Cytotox at 600 nM” value ([12]; onvansertib only) was 24.5%. The EC50 ([13]; onvansertib + 1 nM INBRX-109) was 0.0233 µM, the EC50 ([13]; onvansertib only) was 0.097 µM and the “Max Cytotox at 600 nM” value ([13]; onvansertib + 1 nM INBRX-109) was 99.0%. The “Max Cytotox at 600 nM” value ([13]; onvansertib only) was 43.2%, the EC50 ([14]; onvansertib + 1 nM INBRX-109) was 0.0546 µM and the EC50 ([14]; onvansertib only) was 0.0621 µM. The “Max Cytotox at 600 nM” value ([14]; onvansertib + 1 nM INBRX-109) was 90.4%, the “Max Cytotox at 600 nM” value ([14]; onvansertib only) was 61.8% and the EC50 ([15]; onvansertib + 1 nM INBRX-109) was 0.297 µM. The EC50 ([15]; onvansertib only) was 0.355 µM, the “Max Cytotox at 600 nM” value ([15]; onvansertib + 1 nM INBRX-109) was 62.9% and the “Max Cytotox at 600 nM” value ([15]; onvansertib only) was 32.1%.
